Assay results as given in patent publication US11279728B2, “Broad spectrum viral inhibitor” (Albert Einstein College of Medicine, priority 2017, dated 2022).
Entries after “also recorded” stand apart in the source; their conditions may differ.

Assays:
Dengue virus (DV) RdRp = Dengue virus (DV) RdRp (Dengue virus type 2, UniProt P29990); test: DV RdRp primed-template (primer extension) assay; format: biochemical; conditions: for incorporation by DV RdRp on addition to the extended primer: direct incorporation, primed-template assay; for inhibition of DV RdRp-catalyzed production of full-length RNA: in competition with natural ribonucleotides, increasing concentrations (1, 10, 100 and 300 μM); for chain termination of DV RdRp-catalyzed RNA synthesis: once incorporated, only a 16-nt product (n+1)
Text: FIG. 6(A)-6(B): DV RdRp-catalyzed RNA synthesis is inhibited by ddhCTP by a chain termination mechanism. A. Schematic of primer extension assay for evaluating DV RdRp activity. Elongation complexes are first assembled with a trinucleotide primer, 5′-pGGC (SEQ ID NO:1), and 20-nt RNA template (SEQ ID NO:2) in the presence of ATP and GTP to elongate the trinucleotide primer (extended primer; SEQ ID NO:3)) and position the enzyme on the template (SEQ ID NO:2) such that guanosine is in the first templating position (underlined). In the presence of CTP and UTP, DV RdRp catalyzes RNA synthesis to the end of the template (SEQ ID NO:5). […] B. Increasing concentrations of ddhCTP (1, 10, 100 and 300 μM) inhibits DV RdRp-catalyzed RNA synthesis. Reaction products resolved by denaturing PAGE from DV RdRp-catalyzed nucleoside incorporation in the presence of increasing concentrations of either ddhCTP or 3′-dCTP. In the absence of ddhCTP and 3′-dCTP, DV RdRp efficiently catalyzes RNA synthesis to the end of the template creating a 20-nt RNA product (n+5, lanes 2 and 8).
Molecular target for ddhCTP: Viperin is induced by both DNA and RNA viruses (8,44-51). However, the presence of a 2′-OH on ddhCTP should almost certainly preclude efficient utilization by DNA polymerases, viral or cellular. (52) In contrast, 3′-deoxyribonucleotides are well known inhibitors of viral RNA-dependent RNA polymerases (RdRps)(53). Because Dengue virus (DV) and other members of the Flavivirus family are known to be sensitive to viperin, we used the DV RdRp as our model to examine the effect of ddhCTP on RdRp activity. First, it was asked if ddhCTP is a substrate for DV RdRp. To do so, a previously described primed-template assay was used. (54) A trinucleotide is used to prime RNA synthesis in the presence of two ^32P-labeled rNTPs, producing a 15-nt product that is referred to here as the extended primer. […] Addition of UTP to the CMP-incorporated RNA led to further extension to the end of template. […] A more stringent test of chain terminator effectiveness is whether it can directly compete with natural ribonucleotides. […] The reduced efficacy of ddhCTP must be caused by the double bond between the 3′ and 4′ positions, and the corresponding impact on the detailed ribose conformation, as this is the only difference between ddhCTP and 3′-dCTP. The phylogeny of viral RdRp genes classifies these enzymes into three supergroups (55), with Flaviviral RdRps belonging to supergroup II. To determine if the observations with DV RdRp extend to other supergroups, we evaluated a member of supergroup I. Specifically, the RdRp from human rhinovirus type C (HRV-C) was used, a member of the Picornavirus family. […] However, in the presence of other rNTPs, HRV-C RdRp was not inhibited by ddhCTP, even though it was inhibited by 3′-dCTP.
Addition of UTP to the CMP-incorporated RNA, as expected, led to further extension to the end of template.

Zika virus (ZIKV) RdRp = Zika virus (ZIKV) RdRp (Zika virus, UniProt Q32ZE1); test: ZIKV RdRp inhibition by ddhCTP; format: biochemical
[1] = system: RdRp from human rhinovirus type C (HRV-C); test: HRV-C RdRp incorporation and inhibition; format: biochemical; conditions: for utilization by HRV-C RdRp: direct-incorporation experiments; for inhibition of HRV-C RdRp: in the presence of other rNTPs
poliovirus (PV) RdRp = poliovirus (PV) RdRp (Poliovirus type 1, UniProt P03300); format: biochemical
HCV RdRp = HCV RdRp (Hepatitis C virus genotype 1a, UniProt P27958); test: HCV RdRp inhibition by ddhCTP
[2] = target: T1, Rattus norvegicus (residues 51-361) viperin (Rvip) (Rattus norvegicus, UniProt O70600); test: In vitro characterization of viperin (Rvip) activity: 5′dA formation / ddhCTP production; conditions: 50 μM Rvip, 2 mM SAM, 1 mM nucleotide, 5 mM dithionite, 4 min
T1 sequence (O70600 51-360 limits assumed): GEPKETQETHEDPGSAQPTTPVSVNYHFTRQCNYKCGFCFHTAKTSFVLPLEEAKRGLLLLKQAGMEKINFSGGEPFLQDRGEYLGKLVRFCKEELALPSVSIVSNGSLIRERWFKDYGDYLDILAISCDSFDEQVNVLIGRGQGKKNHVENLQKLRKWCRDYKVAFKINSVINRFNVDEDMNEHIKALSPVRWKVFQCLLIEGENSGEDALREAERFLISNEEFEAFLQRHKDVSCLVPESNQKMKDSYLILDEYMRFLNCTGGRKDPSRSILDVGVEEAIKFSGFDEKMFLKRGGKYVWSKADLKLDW

Vero cells = test: Vero cell viability (ddhC cytotoxicity); format: cell-based; conditions: incubation with 1 mM ddhC
[3] = system: ZIKV (MR766, PRVABC59, R103451); test: ZIKV replication and release from Vero cells
[4] = substrate: Nc1ccn([C@@H]2O[C@H](COP(=O)(O)OP(=O)(O)OP(=O)(O)O)[C@@H](O)[C@H]2O)c(=O)n1; test: purified protein, by the assay type; conditions: other: CTP as substrate of Rvip, 37.0 °C

Dengue virus (DV) RdRp, sequence (P29990 2492-3391 limits assumed): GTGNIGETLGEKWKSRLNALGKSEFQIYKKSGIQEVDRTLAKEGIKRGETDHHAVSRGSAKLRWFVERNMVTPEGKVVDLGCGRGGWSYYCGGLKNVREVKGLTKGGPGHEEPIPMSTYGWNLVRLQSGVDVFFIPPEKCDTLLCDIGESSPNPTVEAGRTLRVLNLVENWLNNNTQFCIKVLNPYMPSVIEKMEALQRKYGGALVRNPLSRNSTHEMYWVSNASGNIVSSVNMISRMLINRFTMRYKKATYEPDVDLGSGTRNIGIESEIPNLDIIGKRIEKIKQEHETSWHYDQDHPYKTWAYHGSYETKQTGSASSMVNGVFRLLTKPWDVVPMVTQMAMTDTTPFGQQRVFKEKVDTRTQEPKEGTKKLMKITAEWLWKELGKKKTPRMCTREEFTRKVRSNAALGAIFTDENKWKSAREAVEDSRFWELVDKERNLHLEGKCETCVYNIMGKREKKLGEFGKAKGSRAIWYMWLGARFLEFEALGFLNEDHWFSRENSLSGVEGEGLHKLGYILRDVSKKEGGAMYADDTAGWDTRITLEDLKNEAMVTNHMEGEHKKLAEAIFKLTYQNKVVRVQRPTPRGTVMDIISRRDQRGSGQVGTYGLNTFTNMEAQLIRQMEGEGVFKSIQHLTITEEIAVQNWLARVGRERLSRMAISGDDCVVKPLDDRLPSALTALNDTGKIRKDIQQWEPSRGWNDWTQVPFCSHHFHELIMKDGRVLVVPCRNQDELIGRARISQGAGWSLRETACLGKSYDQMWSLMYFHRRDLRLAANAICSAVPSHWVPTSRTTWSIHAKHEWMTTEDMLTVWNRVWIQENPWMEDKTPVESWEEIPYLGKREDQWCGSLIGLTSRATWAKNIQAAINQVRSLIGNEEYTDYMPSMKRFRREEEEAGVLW
poliovirus (PV) RdRp, sequence (P03300 1749-2209 limits assumed): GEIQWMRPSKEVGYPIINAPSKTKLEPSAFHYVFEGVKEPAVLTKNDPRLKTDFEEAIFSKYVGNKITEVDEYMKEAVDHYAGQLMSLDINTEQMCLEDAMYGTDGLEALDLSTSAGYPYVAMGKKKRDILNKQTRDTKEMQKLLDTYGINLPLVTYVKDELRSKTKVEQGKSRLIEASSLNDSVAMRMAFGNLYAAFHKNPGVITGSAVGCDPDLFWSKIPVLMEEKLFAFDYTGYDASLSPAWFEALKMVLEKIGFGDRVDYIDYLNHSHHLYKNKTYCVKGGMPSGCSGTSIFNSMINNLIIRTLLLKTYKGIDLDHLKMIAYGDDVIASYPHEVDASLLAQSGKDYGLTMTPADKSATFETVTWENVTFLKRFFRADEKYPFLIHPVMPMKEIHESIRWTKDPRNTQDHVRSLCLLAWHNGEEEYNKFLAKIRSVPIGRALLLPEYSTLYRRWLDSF
Zika virus (ZIKV) RdRp, sequence (Q32ZE1 2517-3419): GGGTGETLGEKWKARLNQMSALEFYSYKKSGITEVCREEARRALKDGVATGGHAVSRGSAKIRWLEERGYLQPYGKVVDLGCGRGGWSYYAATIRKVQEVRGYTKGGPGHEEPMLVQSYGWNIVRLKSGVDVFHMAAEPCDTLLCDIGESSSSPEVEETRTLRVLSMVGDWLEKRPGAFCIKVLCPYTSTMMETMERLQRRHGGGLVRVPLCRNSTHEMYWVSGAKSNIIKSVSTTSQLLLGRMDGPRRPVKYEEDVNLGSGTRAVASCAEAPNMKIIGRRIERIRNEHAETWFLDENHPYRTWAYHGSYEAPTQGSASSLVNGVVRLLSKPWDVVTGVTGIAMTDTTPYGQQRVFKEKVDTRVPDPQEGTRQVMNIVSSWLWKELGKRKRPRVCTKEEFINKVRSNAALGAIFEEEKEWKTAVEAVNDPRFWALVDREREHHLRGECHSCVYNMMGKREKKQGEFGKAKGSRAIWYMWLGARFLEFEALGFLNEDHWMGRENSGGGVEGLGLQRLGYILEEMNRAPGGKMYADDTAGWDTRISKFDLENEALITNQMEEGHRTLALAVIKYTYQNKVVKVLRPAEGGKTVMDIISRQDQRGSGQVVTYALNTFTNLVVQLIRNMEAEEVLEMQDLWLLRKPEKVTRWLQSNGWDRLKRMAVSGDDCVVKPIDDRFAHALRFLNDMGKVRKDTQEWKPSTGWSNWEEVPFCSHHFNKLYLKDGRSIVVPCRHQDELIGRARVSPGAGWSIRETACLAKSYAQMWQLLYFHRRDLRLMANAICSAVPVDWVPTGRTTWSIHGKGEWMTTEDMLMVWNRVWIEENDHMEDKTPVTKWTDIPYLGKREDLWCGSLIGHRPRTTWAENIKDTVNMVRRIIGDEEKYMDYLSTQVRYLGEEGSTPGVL
HCV RdRp, sequence (P27958 2421-3011): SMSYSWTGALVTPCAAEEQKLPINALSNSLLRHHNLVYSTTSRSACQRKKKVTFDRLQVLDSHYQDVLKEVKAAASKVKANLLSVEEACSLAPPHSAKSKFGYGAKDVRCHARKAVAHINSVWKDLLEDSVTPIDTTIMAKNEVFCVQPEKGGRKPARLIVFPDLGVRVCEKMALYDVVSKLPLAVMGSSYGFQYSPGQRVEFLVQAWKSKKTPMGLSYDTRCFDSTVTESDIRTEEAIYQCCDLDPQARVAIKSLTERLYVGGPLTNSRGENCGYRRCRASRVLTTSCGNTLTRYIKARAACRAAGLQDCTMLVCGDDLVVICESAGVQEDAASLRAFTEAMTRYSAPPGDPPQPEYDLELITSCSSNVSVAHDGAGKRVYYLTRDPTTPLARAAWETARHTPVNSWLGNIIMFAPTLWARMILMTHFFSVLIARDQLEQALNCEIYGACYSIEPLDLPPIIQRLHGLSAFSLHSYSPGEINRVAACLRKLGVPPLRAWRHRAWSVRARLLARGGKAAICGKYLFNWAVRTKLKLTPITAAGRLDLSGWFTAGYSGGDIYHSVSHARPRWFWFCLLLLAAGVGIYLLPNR

Molecule | incorporation by DV RdRp on addition to the extended primer (Dengue virus (DV) RdRp) | inhibition of DV RdRp-catalyzed production of full-length RNA (Dengue virus (DV) RdRp) | chain termination of DV RdRp-catalyzed RNA synthesis (Dengue virus (DV) RdRp) | utilization by HRV-C RdRp [1] | inhibition of HRV-C RdRp [1] | inhibition of PV RdRp (poliovirus (PV) RdRp) | also measured
Nc1ccn([C@@H]2OC(COP(=O)(O)OP(=O)(O)OP(=O)(O)O)=C[C@@H]2O)c(=O)n1 (stereo in doubt) [ddhCTP, 3′-deoxy-3′,4′-didehydro-cytidine triphosphate] | led to incorporation | inhibits; also recorded: inhibited production of full-length RNA | terminate RNA synthesis | utilization | not inhibited; also recorded: poorly inhibited | poorly inhibited | inhibition by ddhCTP utilization and chain termination (Zika virus (ZIKV) RdRp): susceptible to inhibition; inhibition by ddhCTP utilization and chain termination (HCV RdRp): susceptible to inhibition
Nc1ccn([C@@H]2O[C@H](COP(=O)(O)OP(=O)(O)OP(=O)(O)O)[C@@H](O)[C@H]2O)c(=O)n1 [CTP, cytidine triphosphate] | – | – | – | – | – | – | activation of 5′dA production relative to protein alone [2]: 30 fold
Nc1ccn([C@@H]2OC(CO)=C[C@H]2O)c(=O)n1 [ddhC, 3′-deoxy-3′,4′-didehydro-cytidine] | – | – | – | – | – | – | Vero cell viability (Vero cells): did not alter Vero cell viability; reduction in virus titer ([3]; ZIKV MR766, MOI of 0.1, all time points, Vero cells): 50-200 fold; reduction in virus titer ([3]; ZIKV MR766, MOI of 1.0, Vero cells): 5-50 fold; sensitivity to ddhC treatment ([3]; ZIKV PRVABC59 (Puerto Rico), Vero cells): analogous sensitivities; sensitivity to ddhC treatment ([3]; ZIKV R103451 (Honduras), Vero cells): analogous sensitivities
Nc1ccn([C@@H]2O[C@H](COP(=O)(O)OP(=O)(O)OP(=O)(O)O)C[C@H]2O)c(=O)n1 [3′-dCTP, reference compound] | led to incorporation | inhibited production of full-length RNA | terminate RNA synthesis | utilization | inhibited | inhibited | efficacy of inhibition of full-length RNA, 3′-dCTP compared with ddhCTP (Dengue virus (DV) RdRp; compare lane 10 to lane 4 in FIG. 6B): greater efficacy than ddhCTP
Rattus norvegicus (residues 51-361) viperin (Rvip) (Rattus norvegicus) (protein) GEPKETQETHEDPGSAQPTTPVSVNYHFTRQCNYKCGFCFHTAKTSFVLPLEEAKRGLLLLKQAGMEKINFSGGEPFLQDRGEYLGKLVRFCKEELALPSVSIVSNGSLIRERWFKDYGDYLDILAISCDSFDEQVNVLIGRGQGKKNHVENLQKLRKWCRDYKVAFKINSVINRFNVDEDMNEHIKALSPVRWKVFQCLLIEGENSGEDALREAERFLISNEEFEAFLQRHKDVSCLVPESNQKMKDSYLILDEYMRFLNCTGGRKDPSRSILDVGVEEAIKFSGFDEKMFLKRGGKYVWSKADLKLDW | – | – | – | – | – | – | Km [4]: 183 ± 28 µM; kcat ([4]; b22 prints minutes-1): 0.00308 ± 0.00012 s⁻¹
